Measured values: patent US20230255970A1, “COMPOSITIONS AND METHODS FOR TREATING PROLIFERATIVE DISEASES” (The Broad Institute, Inc., priority 2020, published 2023)

Experiments:
[1] = system: KP230, TC32, STS-109, HT-1080, HCT-116 cells; assay: Trypan blue staining toxicity in the proliferation assay cell lines; format: cell-based; conditions: all tested cell lines
Procedure: NB4A treatment: Cells were treated with 10 μM of each inhibitor or an equivalent volume of DMSO every 24 hours for 3-8 days, and counted with a hemocytometer with trypan blue exclusion daily (KP230, HT-1080, TC32, HCT-116), or every 2 days (STS-109).

[2] = system: YAP1 overexpression in U2OS cells; assay: Cell Painting morphological profile matching to YAP1/TAZ overexpression signature; format: cell-based, human
Summary of the method: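 Morphological profiles from Cell Painting (six fluorescent labels) in a single cell line at one time point, standardized plate-wise against control mean and SD, replicate profiles averaged feature-wise. Gene and compound signatures scored by Pearson correlation, large positive or negative correlations counted as matches.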

Yap1 = Yap1 protein levels in KP230 cells (western blot, immunofluorescence); format: cell-based, mouse; conditions: 72 hours
Source text: YAP1 cell culture and treatments: Eisinger lab: Murine KP230 cells, a Yap1-dependent cancer cell line, were derived from a tumor from the KP mouse model (Kras^G12/D; Trp53^f/fl), as described in Eisinger-Mathason, T. S. K. et al., Proc. Natl. Acad. Sci. U.S.A 112 (2015): E3402-11, which is hereby incorporated by reference in its entirety. STS-109 UPS cells were derived from a human UPS tumor and validated by Rebecca Gladdy, MD (Sinai Health System, Toronto, Ontario, Canada). TC32 cells were a gift from Patrick Grohar, MD, PhD (Children's Hospital of Philadelphia). HT-1080, HCT-116, and HEK293T cells were purchased from ATCC. KP230, HT-1080, and HEK-293T cells were grown in DMEM with 10% FBS, 1% L-glutamine, and 1% penicillin/streptomycin (P/S). STS-109 cells were cultured in DMEM with 20% FBS, 1% L-glutamine, and 1% P/S. TC32 cells were grown in RPMI with 10% FBS, 1% L-glutamine, and 1% P/S. HCT-116 cells were cultured in McCoy's 5A medium with 10% FBS and 1% P/S. All cells were confirmed to be negative for mycoplasma contamination and were maintained in an incubator at 37C with 5% CO2. […]
YAP1-related Western blotting: The cells were lysed in RIPA buffer (Pierce) supplemented with Halt Protease inhibitor cocktail and Halt Phosphatase inhibitor cocktail. […] The protein concentration of each sample was quantified using the Pierce BCA protein assay (Thermo Fisher). […]

SMILES: c1ccc(CNc2ncnc3ccccc23)cc1 [BRD-K43796186, N-benzylquinazolin-4-amine]
- toxicity by trypan blue staining [1]: did not exhibit overt toxicity
- Cell Painting profile correlation with YAP1 overexpression [2]: 0.46
- Corr. to YAP1 cluster ([2]; Pearson correlation of Cell Painting signatures, U2OS cells): 0.4622
- Yap1 protein levels (Yap1): reduced
